Legend:
[1] = tested on: gramicidin A; test: Safranine O ion-channel activity assay of reconstituted gramicidin A entrapped in DGS derived silicate; format: biochemical; details: various levels of CaCl2 with 3.0 M KI; several hundred millimolar Ca2+ required; FIG. 6
Description: The Gramicidin A stock was prepared in a solution of chloroform, trifluoroethanol and dimethylsulfoxide (19:5:1 volume ratio) to a final concentration of 4.79×10^−4M. Gramicidin A stock solutions were mixed with the lipid stock solutions (20 mg.mL^−1 DOPC in chloroform) in disposable glass vials to provide final ratios of gA:lipid of either 0.39 mol % or 0.94 mol %. The organic solvent was removed by evaporation under a dry nitrogen gas stream to remove the bulk of the organic solvent, followed by evaporation under vacuum for two hours. […]
For ion-channel studies, reconstitution of gramicidin A samples was done using an unbuffered aqueous solution containing 50 μM safranine O at pH 7.0. […] Liposome solutions that were used for tryptophan fluorescence studies consisted of 0.94 mol % of gramicidin A in DOPC that was hydrated to final concentrations of 1.0 μM of gA in 100 mM phosphate buffer at pH 7.0. […]
The fluorescence intensity response of safranine O was monitored using the MICROMAX microwell plate reader. Fluorescence emission was monitored as a function of time at 565 nm with an excitation wavelength of 528 nm upon addition of 125 μL of various concentrations of potassium iodide to the top of the monolithic samples in the microwell plate to create an ionic gradient across the membrane. […]

[2] = tested on: IMR-32 nAChR; format: biochemical, human
Description: Lipid films consisting of EggPC, EggPE, Sphingomylin and cholesterol in mol ratios of 55:27:9:9 percent, respectively, were prepared as described earlier, and rehydrated to a final lipid concentration of 3.0 mg/mL and Fluo-3 concentration of 65 μM. The liposome stock was then mixed with a small amount of DMM bringing the solution to a final concentration of 0.2 mM. Immediately following this, IMR-32 nAChR stock was added to the detergent lipid mixture and allowed to incubate at 4° C. for 90 min. Following this 15 mg of SM2-Biobeads were added to the mixture and incubated for 1 hr. This was repeated 3 times with the final addition allowed to incubate for a period of 12 hrs. […]
In these assays, IMR-32 nAChR containing liposomes with an intraliposomal solution of Fluo-3 were entrapped as described above in 1:1 (v/v) in DGS derived silica. […] Antagonism of the nAChR ion channel was measured by addition of 25 μL of the nAChR antagonist d-tubocurarine to the top of the nAChR-containing monolith in the 96-well plate. Ligand-gated ion-flux was monitored through time dependent changes in fluorescence intensity upon the addition of 50 μL of 3 M CaCl2 using a TECAN-Safire microwell platereading fluorescence system. Fluo-3 emission was monitored and 526 nm with an excitation wavelength of 488 nm, emission and excitation bandpasses of 5 and 7.5 nm, and a detector gain of 130 V, over a period of 45 min. […]

[3] = target: IMR-32 nAChR; format: binding, human; details: IMR-32 nAChR entrapped in DGS; constant 3H-epibetadine; FIG. 10
Description: Sodium silicate or DGS derived sol precursors were prepared by methods described previously.^64 The sol solution was mixed 1:1 (v/v) with the buffered liposome or reconstituted nAChR solution, in the bottoms of 96 well microtiter plates to a final volume of 100 μL. For entrapment of IMR-32 cells for ion flux assays, the nAChR containing stock described above was uses for entrapment without further dilution. For radioassays using IMR-32 nAChR, the stock sample as provided directly from Perkin Elmer was diluted four fold in 25 mM HEPES, 100 mM KCl, 5 mM EGTA, pH 7.4 and mixed 1:1 (v/v) in DGS derived sol. The samples were aged for 1 hr at 4° C. For Torpedo Californica nAChR, the stock sample was diluted four fold in 150 mM HEPES, 100 mM KCl, 5 mM EDTA, pH 7.4, and mixed 1:1 (v/v) with sodium silicate derived sol.
Samples of either entrapped Torpedo californica nAChR, IMR-32 nAChR or Asolectin liposomes were formed in the bottoms of 96-well microtiter plates. […] The radioactive decay from ^3H-epibatidine was then counted for 5 min to determine the ratio of free ligand existing in solution. […] Using the information from these samples the amount of receptor bound ligand could be determined. […] Free ligand was determined as described above.

[4] = Fluo-3 Ca(II) influx into DOPC liposomes in buffered solution after addition of ionophore; format: biochemical; details: Ca(II) outside, fluo-3 inside, FIG. 14
Description: DOPC stock solutions were purchased in chloroform at a concentration of 20 mg.mL^−1. DOPC stock solution was dispensed in disposable glass vials and the organic solvent was removed by evaporation under a dry nitrogen gas stream to remove the bulk of the organic solvent, followed by evaporation under vacuum for two hours. The resulting dried lipid films were then rehydrated in a buffer consisting of 25 mM EGTA, 25 mM EDTA, 10% Sucrose (w/w), 10 mM KCl, 0.529 mM Fluo-3, pH 7.6 to a final lipid concentration of 2 mg/mL. The hydrated liposomes were then extruded through 600 nm pores, with an Avanti—MINIEXTRUDER at room temperature to create a mono-disperse suspension of unilamellar liposomes 600 nm in diameter. The external Fluo-3 was removed by filtration through a column packed with Sephadex G25 to yield liposomes with dye only on the interior of the liposome.
In this case, Ca(II) is initially present only outside the liposome, while fluo-3 is present only inside the liposome. The addition of ionomycin results in the incorporation of the ionophore into the membrane, and produces a channel through which Ca(II) can move into the interior of the liposome. […]

Question: For `[Ca+2].[Cl-].[Cl-]` [CaCl2], which “potential induced fluorescence response to potassium ion flux (inhibition of ion-channel activity)” value [1] is on record?
Answer: significant and concentration-dependent decrease

Question: Which “fluo-3 emission response to Ca(II) (ion flux) upon addition of agonist” value [2] does the source give for `O=c1cccc2n1C[C@@H]1CNC[C@H]2C1` [cytisine] here?
Answer: acts as an agonist

Question: With `CN1CCCC1c1cccnc1` (single isomer, unassigned; (-)) [nicotine, (−)-nicotine] as the compound, how does the “IC50 and KI values compared with solution based experiments” value [3] read?
Answer: in good agreement with those obtained from solution based experiments

Question: Which “increase of fluo-3 response on Ca(II) influx” value [4] does the source give for `C[C@H](CCC(=O)O)C[C@H](C)C[C@H](C)C(=O)/C=C(\O)[C@H](C)C[C@H](C)C/C=C/[C@@H](C)[C@@H](O)[C@@H](C)[C@@H](O)C[C@@H]1CC[C@@](C)([C@H]2CC[C@@](C)([C@@H](C)O)O2)O1` [ionomycin] here?
Answer: 3 fold

Question: Which results are given for `COc1cc2c3cc1Oc1cc(ccc1O)C[C@@H]1c4c(cc(OC)c(O)c4Oc4ccc(cc4)C[C@@H]3N(C)CC2)CC[N+]1(C)C` [d-tubocurarine]?
Answer: fluo-3 emission response to Ca(II) (ion flux) upon addition of antagonist ([2]; liposomes previously incubated with excess nicotine, FIG. 12): the response is reduced; IC50 and KI values compared with solution based experiments [3]: in good agreement with those obtained from solution based experiments
